The sequences below were run on brain, spinal cord, and DRG of the NHPs (assay: NGS fold enrichment of synthetic library (passage 3) in NHPs, first cross-species screen). Details: synthetic library passage 3, intravenous, RNA NGS, brain of NHPs, relative to wild-type AAV9.
Type: in vivo, cynomolgus macaques (Macaca fascicularis)
Method in brief: (§1)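 Passage-3 synthetic capsid library given intravenously […] to NHPs (2-4 years) and BALB/c or C57Bl/6 mice (n=3, 6-8 weeks). After e.g. 28 days, tissue RNA was RT-PCR amplified and NGS-sequenced; values are fold enrichment of each variant relative to wild-type AAV9.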

Sequence	Fold enrichment over AAV9 in the brain of NHPs [fold]
GSGQNQQVAIRTST	1.035
GSGQNQQTMPQHKI	1.097
GIARTTISGQNQQT	1.078
GTHPYTSSGQNQQT	2.775
GSRTTQVIGQNQQT	1.570
GSNMGVPLGQNQQT	2.049
GSGHNQQVRTAPNT	1.885
GSDQNQQTMSSTRT	1.003
GSNGGVGTGQNQQT	2.130
GSVHLSVTGQNQQT	2.882
GNGFSSASGQNQQT	2.493
GSGQNQQSLSGSFT	1.105
GSGQNHRSADMQQT	1.084
GSRMTQQFGQNQQT	1.720
GSGHMTYREKNQQT	2.633
GSPYMGATGQNQQT	1.083
GSGFLSDTRQNQQT	1.566
GYEVLGSSGQNQQT	2.891
GSGLSHSHQQNQQT	2.109
GNGHSMRPNQNQQT	1.560
GSGQNQQTVQSNLV	1.103
GSLVSVQTGQNQQT	3.534
GSGRNPQTQPLQQT	1.519
GSGSPRDSIQNQQT	1.981
GMYEYSQSGQNQQT	1.438
GSGSPHARMQNQQT	56.138

Same assay, conditions: synthetic library passage 3, intravenous, RNA NGS, spinal cord of NHPs, relative to wild-type AAV9

Sequence	Fold enrichment over AAV9 in the spinal cord of NHPs [fold]
GSGQNQQVAIRTST	2.447
GSGQNQQTMPQHKI	2.394
GIARTTISGQNQQT	1.783
GTHPYTSSGQNQQT	1.684
GSRTTQVIGQNQQT	1.838
GSNMGVPLGQNQQT	2.448
GSGHNQQVRTAPNT	1.022
GSDQNQQTMSSTRT	2.428
GSNGGVGTGQNQQT	0.788
GSVHLSVTGQNQQT	1.157
GNGFSSASGQNQQT	0.772
GSGQNQQSLSGSFT	0.735
GSGQNHRSADMQQT	12.001
GSRMTQQFGQNQQT	25.798
GSGHMTYREKNQQT	5.267
GSPYMGATGQNQQT	5.364
GSGFLSDTRQNQQT	45.953
GYEVLGSSGQNQQT	0.000
GSGLSHSHQQNQQT	5.852
GNGHSMRPNQNQQT	2.341
GSGQNQQTVQSNLV	2.350
GSLVSVQTGQNQQT	6.043
GSGRNPQTQPLQQT	0.040
GSGSPRDSIQNQQT	4.914
GMYEYSQSGQNQQT	0.000
GSGSPHARMQNQQT	22.690

Same assay, conditions: synthetic library passage 3, intravenous, RNA from brain of NHPs, NGS, relative to wild-type AAV9

Sequence	Fold enrichment over AAV9 in the brain of NHPs [fold]
GSGQNQQTTAATRM	1.163
GSGQNLHSGLPQQT	1.363
GSGQMQPHVQNQQT	1.389
GSRTTQDIGQNQQT	1.247
GSGQHAAPGHNQQT	1.195
GSGQVYISTPNQQT	1.367

Same assay, conditions: synthetic library passage 3, intravenous, RNA from spinal cord of NHPs, NGS, relative to wild-type AAV9

Sequence	Fold enrichment over AAV9 in the spinal cord of NHPs [fold]
GSGQNQQTTAATRM	3.925
GSGQNLHSGLPQQT	1.594
GSGQMQPHVQNQQT	9.381
GSRTTQDIGQNQQT	0.000
GSGQHAAPGHNQQT	5.999
GSGQVYISTPNQQT	0.000

What follows are sequences tested on brain (assay: NGS fold enrichment of synthetic library (passage 3) in BALB/c mice, first cross-species screen). Details: synthetic library passage 3, intravenous, RNA NGS, brain of BALB/c mice, relative to wild-type AAV9.
Type: in vivo
Method in brief: as §1

Sequence	Fold enrichment over AAV9 in the brain of Mice (BALB/c) [fold]
GSGQNQQVAIRTST	0.370
GSGQNQQTMPQHKI	0.197
GIARTTISGQNQQT	0.330
GTHPYTSSGQNQQT	0.471
GSRTTQVIGQNQQT	0.564
GSNMGVPLGQNQQT	0.420
GSGHNQQVRTAPNT	0.580
GSDQNQQTMSSTRT	0.835
GSNGGVGTGQNQQT	1.087
GSVHLSVTGQNQQT	0.282
GNGFSSASGQNQQT	0.182
GSGQNQQSLSGSFT	0.883
GSGQNHRSADMQQT	0.212
GSRMTQQFGQNQQT	0.976
GSGHMTYREKNQQT	0.540
GSPYMGATGQNQQT	0.254
GSGFLSDTRQNQQT	0.575
GYEVLGSSGQNQQT	0.319
GSGLSHSHQQNQQT	0.592
GNGHSMRPNQNQQT	0.376
GSGQNQQTVQSNLV	0.698
GSLVSVQTGQNQQT	0.469
GSGRNPQTQPLQQT	0.573
GSGSPRDSIQNQQT	0.446
GMYEYSQSGQNQQT	0.448
GSGSPHARMQNQQT	4.164

Same assay, conditions: synthetic library passage 3, intravenous, RNA from brain of BALB/c mice, NGS, relative to wild-type AAV9

Sequence	Fold enrichment over AAV9 in the brain of Mice (BALB/c) [fold]
GSGQNQQTTAATRM	1.005
GSGQNLHSGLPQQT	0.592
GSGQMQPHVQNQQT	0.153
GSRTTQDIGQNQQT	0.280
GSGQHAAPGHNQQT	0.199
GSGQVYISTPNQQT	0.282

Each sequence was assayed on brain (assay: NGS fold enrichment of synthetic library (passage 3) in C57Bl/6 mice, first cross-species screen). Details: synthetic library passage 3, intravenous, RNA NGS, brain of C57Bl/6 mice, relative to wild-type AAV9.
Type: in vivo
Method in brief: as §1

Sequence	Fold enrichment over AAV9 in the brain of Mice (C57Bl/6) [fold]
GSGQNQQVAIRTST	0.963
GSGQNQQTMPQHKI	0.479
GIARTTISGQNQQT	0.819
GTHPYTSSGQNQQT	0.758
GSRTTQVIGQNQQT	0.773
GSNMGVPLGQNQQT	0.334
GSGHNQQVRTAPNT	1.006
GSDQNQQTMSSTRT	1.306
GSNGGVGTGQNQQT	1.191
GSVHLSVTGQNQQT	0.741
GNGFSSASGQNQQT	0.240
GSGQNQQSLSGSFT	0.745
GSGQNHRSADMQQT	0.417
GSRMTQQFGQNQQT	1.233
GSGHMTYREKNQQT	1.257
GSPYMGATGQNQQT	0.918
GSGFLSDTRQNQQT	0.473
GYEVLGSSGQNQQT	2.459
GSGLSHSHQQNQQT	1.256
GNGHSMRPNQNQQT	0.693
GSGQNQQTVQSNLV	0.577
GSLVSVQTGQNQQT	0.903
GSGRNPQTQPLQQT	0.733
GSGSPRDSIQNQQT	0.171
GMYEYSQSGQNQQT	1.410
GSGSPHARMQNQQT	7.795

Same assay, conditions: synthetic library passage 3, intravenous, RNA from brain of C57Bl/6 mice, NGS, relative to wild-type AAV9

Sequence	Fold enrichment over AAV9 in the brain of Mice (C57Bl/6) [fold]
GSGQNQQTTAATRM	0.947
GSGQNLHSGLPQQT	1.054
GSGQMQPHVQNQQT	0.387
GSRTTQDIGQNQQT	0.685
GSGQHAAPGHNQQT	0.600
GSGQVYISTPNQQT	0.859
